Assay [1] has as its target Peptidyl-prolyl cis-trans isomerase FKBP1A (Homo sapiens) (UniProt P62942). Put plainly: Immunosuppressive activity in FK506 binding protein 12 binding assay as inhibitory concentration (rIC50) relative to FK506 IC50 (1.2 nM).
Assay [2] in a line: In vitro immunosuppressive activity measured in the interleukin-2 receptor gene assay (IL-2 RGA) in mitogen-stimulated human T-cell line; relative to FK506.
The species named for another assay is Mus musculus. Put plainly: In vitro immunosuppressive activity measured in the mouse mixed lymphocyte reaction (MLR) expressed as relative inhibitory concentration (rIC50) relative to FK506 IC50 (0.3 nM). It counts as functional.

Peptidyl-prolyl cis-trans isomerase FKBP1A (Homo sapiens), sequence (P62942 whole entry): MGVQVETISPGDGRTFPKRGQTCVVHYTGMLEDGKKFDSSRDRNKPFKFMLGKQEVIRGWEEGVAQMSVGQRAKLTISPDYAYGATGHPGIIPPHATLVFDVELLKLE

In the case of `CC[C@@H]1/C=C(\C)C[C@H](C)C[C@H](OC)[C@H]2O[C@@](O)(C(=O)C(=O)N3CCCC[C@H]3C(=O)O[C@H](/C(C)=C/[C@@H]3CC[C@@H](OC(=O)NNc4ccccc4)[C@H](OC)C3)[C@H](C)[C@@H](O)CC1=O)[C@H](C)C[C@@H]2OC`, the results for the rIC50 (in assay [1]; in assay [2]; in the assay filed under Mus musculus) were 1.5, 0.7 and 2.5, respectively.
Turning to `CC[C@@H]1/C=C(\C)C[C@H](C)C[C@H](OC)[C@H]2O[C@@](O)(C(=O)C(=O)N3CCCC[C@H]3C(=O)O[C@H](/C(C)=C/[C@@H]3CC[C@@H](OC(=S)NC(=O)C[C@@H]4OC(C)(C)OC4=O)[C@H](OC)C3)[C@H](C)[C@@H](O)CC1=O)[C@H](C)C[C@@H]2OC`, the rIC50 came out at 0.9 in assay [1], 12 in assay [2] and 12 in the assay filed under Mus musculus.
`CC[C@@H]1/C=C(\C)C[C@H](C)C[C@H](OC)[C@H]2O[C@@](O)(C(=O)C(=O)N3CCCC[C@H]3C(=O)O[C@H](/C(C)=C/[C@@H]3CC[C@@H](OC(=S)NC(=O)c4ccccc4)[C@H](OC)C3)[C@H](C)[C@@H](O)CC1=O)[C@H](C)C[C@@H]2OC`: the rIC50 in assay [1] is 6.3; in assay [2], 3.4; in the assay filed under Mus musculus, 11.
With `CC[C@@H]1/C=C(\C)C[C@H](C)C[C@H](OC)[C@H]2O[C@@](O)(C(=O)C(=O)N3CCCC[C@H]3C(=O)O[C@H](/C(C)=C/[C@@H]3CC[C@@H](OC(=O)NC(=O)c4ccccc4)[C@H](OC)C3)[C@H](C)[C@@H](O)CC1=O)[C@H](C)C[C@@H]2OC`, the rIC50 in assay [1] is 1.3; in assay [2], 1.2; in the assay listed under Mus musculus, 2.9.
Turning to `CC[C@@H]1/C=C(\C)C[C@H](C)C[C@H](OC)[C@H]2O[C@@](O)(C(=O)C(=O)N3CCCC[C@H]3C(=O)O[C@H](/C(C)=C/[C@@H]3CC[C@@H](OC(=S)NC(=O)CCC(=O)OC)[C@H](OC)C3)[C@H](C)[C@@H](O)CC1=O)[C@H](C)C[C@@H]2OC`, the rIC50 in assay [1] was 1.6; in assay [2] it was 4.6; in the assay filed under Mus musculus, 19.
Regarding `CC[C@@H]1/C=C(\C)C[C@H](C)C[C@H](OC)[C@H]2O[C@@](O)(C(=O)C(=O)N3CCCC[C@H]3C(=O)O[C@H](/C(C)=C/[C@@H]3CC[C@@H](OC(=S)NC(=O)c4ccc(C(=O)OC)cc4)[C@H](OC)C3)[C@H](C)[C@@H](O)CC1=O)[C@H](C)C[C@@H]2OC`, the values for the rIC50 (in assay [1]; in assay [2]; in the assay filed under Mus musculus) were 7.3, 9 and 8.4, respectively.
With `CC[C@@H]1/C=C(\C)C[C@H](C)C[C@H](OC)[C@H]2O[C@@](O)(C(=O)C(=O)N3CCCC[C@H]3C(=O)O[C@H](/C(C)=C/[C@@H]3CC[C@@H](O)[C@H](OC)C3)[C@H](C)[C@@H](O)CC1=O)[C@H](C)C[C@@H]2OC` [ASCOMYCIN], the values for the rIC50 (in assay [1]; in assay [2]; in the assay listed under Mus musculus) were 0.9, 1.7 and 1.9, respectively.
Taken in the same sequence, the figures for `C=CC[C@@H]1/C=C(\C)C[C@H](C)C[C@H](OC)[C@H]2O[C@@](O)(C(=O)C(=O)N3CCCC[C@H]3C(=O)O[C@H](/C(C)=C/[C@@H]3CC[C@@H](O)[C@H](OC)C3)[C@H](C)[C@@H](O)CC1=O)[C@H](C)C[C@@H]2OC` [TACROLIMUS ANHYDROUS] were 1, 1 and 1.
Turning to `CC[C@@H]1/C=C(\C)C[C@H](C)C[C@H](OC)[C@H]2O[C@@](O)(C(=O)C(=O)N3CCCC[C@H]3C(=O)O[C@H](/C(C)=C/[C@@H]3CC[C@@H](OC(=S)NC(=O)c4ccc5ccccc5c4)[C@H](OC)C3)[C@H](C)[C@@H](O)CC1=O)[C@H](C)C[C@@H]2OC`, the results for the rIC50 (in assay [1]; in assay [2]; in the assay filed under Mus musculus) were 6.6, 6.5 and 15, respectively.
Taken in the same sequence, the figures for `CC[C@@H]1/C=C(\C)C[C@H](C)C[C@H](OC)[C@H]2O[C@@](O)(C(=O)C(=O)N3CCCC[C@H]3C(=O)O[C@H](/C(C)=C/[C@@H]3CC[C@@H](OC(=S)NC(=O)c4ccco4)[C@H](OC)C3)[C@H](C)[C@@H](O)CC1=O)[C@H](C)C[C@@H]2OC` were 3.4, 3.5 and 7.6.
In the case of `CC[C@@H]1/C=C(\C)C[C@H](C)C[C@H](OC)[C@H]2O[C@@](O)(C(=O)C(=O)N3CCCC[C@H]3C(=O)O[C@H](/C(C)=C/[C@@H]3CC[C@@H](OC(=S)N(C)C(=O)CCC(=O)OC)[C@H](OC)C3)[C@H](C)[C@@H](O)CC1=O)[C@H](C)C[C@@H]2OC`, the rIC50 worked out at 2.7 in assay [1], 6.9 in assay [2] and 36 in the assay listed under Mus musculus.
